# Data from paper PMC6704710, “Preclinical evaluation of 3D185, a novel potent inhibitor of FGFR1/2/3 and CSF-1R, in FGFR-dependent and macrophage-dominant cancer models” (Journal of Experimental & Clinical Cancer Research : CR, 2019).
# Assays:
# Test in all cases: Eurofins kinase panel
# Type in all cases: biochemical
# Details in all cases: read-out: Inhibition rate (%)
# CK2α1(h) = target: T1, CK2α1(h) (Homo sapiens, UniProt P68400)
# T1 construct: purchased Eurofins (KinaseProfiler)
# NDR2(h) = target: T2, NDR2(h) (Homo sapiens, UniProt Q9Y2H1)
# T2 construct: purchased Eurofins (KinaseProfiler)
# T2 sequence (Q9Y2H1 whole entry): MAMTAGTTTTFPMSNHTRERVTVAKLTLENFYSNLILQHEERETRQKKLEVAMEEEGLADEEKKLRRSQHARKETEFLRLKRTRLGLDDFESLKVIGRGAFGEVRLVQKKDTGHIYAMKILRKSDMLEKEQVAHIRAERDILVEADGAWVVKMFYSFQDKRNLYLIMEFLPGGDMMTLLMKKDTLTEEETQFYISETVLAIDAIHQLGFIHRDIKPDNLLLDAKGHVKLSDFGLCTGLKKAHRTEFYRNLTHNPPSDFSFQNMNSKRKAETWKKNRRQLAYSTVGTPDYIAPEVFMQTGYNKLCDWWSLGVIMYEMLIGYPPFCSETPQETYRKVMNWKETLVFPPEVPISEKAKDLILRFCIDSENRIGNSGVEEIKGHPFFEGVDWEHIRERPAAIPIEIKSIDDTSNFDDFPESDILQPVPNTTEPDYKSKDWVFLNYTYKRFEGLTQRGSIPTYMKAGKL
# GRK6(h) = target: T3, GRK6(h) (Homo sapiens, UniProt P43250)
# T3 construct: purchased Eurofins (KinaseProfiler)
# T3 sequence (P43250 whole entry): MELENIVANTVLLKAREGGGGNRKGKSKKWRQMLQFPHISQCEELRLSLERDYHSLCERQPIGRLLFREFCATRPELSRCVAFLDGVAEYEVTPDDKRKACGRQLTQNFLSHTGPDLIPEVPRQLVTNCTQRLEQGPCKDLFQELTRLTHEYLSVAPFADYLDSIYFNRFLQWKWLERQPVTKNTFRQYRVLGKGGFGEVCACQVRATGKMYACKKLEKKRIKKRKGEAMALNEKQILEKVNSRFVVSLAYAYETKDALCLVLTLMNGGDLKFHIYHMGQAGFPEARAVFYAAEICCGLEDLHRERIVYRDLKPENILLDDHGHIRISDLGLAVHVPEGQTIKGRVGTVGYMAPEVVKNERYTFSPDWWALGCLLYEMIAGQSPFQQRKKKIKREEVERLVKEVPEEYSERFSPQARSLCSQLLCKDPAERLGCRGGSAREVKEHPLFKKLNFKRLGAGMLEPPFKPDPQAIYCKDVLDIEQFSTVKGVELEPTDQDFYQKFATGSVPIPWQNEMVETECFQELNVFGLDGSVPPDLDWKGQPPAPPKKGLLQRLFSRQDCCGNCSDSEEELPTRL
# CaMKIIα(h) = target: T4, CaMKIIα(h) (Homo sapiens, UniProt Q9UQM7)
# T4 construct: purchased Eurofins (KinaseProfiler)
# T4 sequence (Q9UQM7 whole entry): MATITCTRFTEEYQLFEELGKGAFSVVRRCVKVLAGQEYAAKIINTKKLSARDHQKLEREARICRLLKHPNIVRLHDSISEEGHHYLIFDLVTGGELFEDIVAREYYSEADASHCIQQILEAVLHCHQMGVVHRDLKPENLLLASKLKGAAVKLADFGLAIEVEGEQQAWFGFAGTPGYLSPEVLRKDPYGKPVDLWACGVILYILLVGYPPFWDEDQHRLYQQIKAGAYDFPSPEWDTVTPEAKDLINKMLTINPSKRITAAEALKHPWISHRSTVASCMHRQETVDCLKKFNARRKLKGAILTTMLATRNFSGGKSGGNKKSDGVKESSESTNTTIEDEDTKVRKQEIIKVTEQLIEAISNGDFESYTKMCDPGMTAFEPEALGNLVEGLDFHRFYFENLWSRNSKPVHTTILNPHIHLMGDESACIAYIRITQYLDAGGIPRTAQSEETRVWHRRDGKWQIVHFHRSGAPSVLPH
# DYRK2(h) = target: T5, DYRK2(h) (Homo sapiens, UniProt Q92630)
# T5 construct: purchased Eurofins (KinaseProfiler)
# T5 sequence (Q92630 1-601): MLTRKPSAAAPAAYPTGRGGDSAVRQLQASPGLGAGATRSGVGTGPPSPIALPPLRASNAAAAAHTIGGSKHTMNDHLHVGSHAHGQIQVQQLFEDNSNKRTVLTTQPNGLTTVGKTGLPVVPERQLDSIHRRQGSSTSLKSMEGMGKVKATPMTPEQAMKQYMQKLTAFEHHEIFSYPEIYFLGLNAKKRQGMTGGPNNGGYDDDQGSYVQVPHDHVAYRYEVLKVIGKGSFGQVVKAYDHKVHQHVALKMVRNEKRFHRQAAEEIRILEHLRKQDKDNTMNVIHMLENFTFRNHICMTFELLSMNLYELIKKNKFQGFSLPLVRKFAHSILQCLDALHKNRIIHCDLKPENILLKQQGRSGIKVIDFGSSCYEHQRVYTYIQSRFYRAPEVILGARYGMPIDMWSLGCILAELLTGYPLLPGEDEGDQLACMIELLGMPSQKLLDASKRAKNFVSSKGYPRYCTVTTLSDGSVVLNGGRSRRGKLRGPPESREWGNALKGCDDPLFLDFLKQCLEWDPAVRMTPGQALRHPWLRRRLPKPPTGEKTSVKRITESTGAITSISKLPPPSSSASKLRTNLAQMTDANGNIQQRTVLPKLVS
# CHK1(h) = target: T6, CHK1(h) (Homo sapiens, UniProt O14757)
# T6 construct: purchased Eurofins (KinaseProfiler)
# T6 sequence (O14757 1-476): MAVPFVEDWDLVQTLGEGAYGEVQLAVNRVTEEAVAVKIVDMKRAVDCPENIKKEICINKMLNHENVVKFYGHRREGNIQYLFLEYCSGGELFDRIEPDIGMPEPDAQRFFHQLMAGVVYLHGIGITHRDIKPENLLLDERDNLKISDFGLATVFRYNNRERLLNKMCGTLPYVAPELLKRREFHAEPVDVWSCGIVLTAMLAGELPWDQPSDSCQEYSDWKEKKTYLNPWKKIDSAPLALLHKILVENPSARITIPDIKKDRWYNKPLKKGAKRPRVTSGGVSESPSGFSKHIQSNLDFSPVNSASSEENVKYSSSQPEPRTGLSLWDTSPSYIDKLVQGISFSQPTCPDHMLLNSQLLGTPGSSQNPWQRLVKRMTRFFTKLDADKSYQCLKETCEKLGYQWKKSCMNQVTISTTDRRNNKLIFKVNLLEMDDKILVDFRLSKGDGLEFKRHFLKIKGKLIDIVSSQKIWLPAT
# RIPK1(h) = target: T7, RIPK1(h) (Homo sapiens, UniProt Q13546)
# T7 construct: purchased Eurofins (KinaseProfiler)
# T7 sequence (Q13546 1-671): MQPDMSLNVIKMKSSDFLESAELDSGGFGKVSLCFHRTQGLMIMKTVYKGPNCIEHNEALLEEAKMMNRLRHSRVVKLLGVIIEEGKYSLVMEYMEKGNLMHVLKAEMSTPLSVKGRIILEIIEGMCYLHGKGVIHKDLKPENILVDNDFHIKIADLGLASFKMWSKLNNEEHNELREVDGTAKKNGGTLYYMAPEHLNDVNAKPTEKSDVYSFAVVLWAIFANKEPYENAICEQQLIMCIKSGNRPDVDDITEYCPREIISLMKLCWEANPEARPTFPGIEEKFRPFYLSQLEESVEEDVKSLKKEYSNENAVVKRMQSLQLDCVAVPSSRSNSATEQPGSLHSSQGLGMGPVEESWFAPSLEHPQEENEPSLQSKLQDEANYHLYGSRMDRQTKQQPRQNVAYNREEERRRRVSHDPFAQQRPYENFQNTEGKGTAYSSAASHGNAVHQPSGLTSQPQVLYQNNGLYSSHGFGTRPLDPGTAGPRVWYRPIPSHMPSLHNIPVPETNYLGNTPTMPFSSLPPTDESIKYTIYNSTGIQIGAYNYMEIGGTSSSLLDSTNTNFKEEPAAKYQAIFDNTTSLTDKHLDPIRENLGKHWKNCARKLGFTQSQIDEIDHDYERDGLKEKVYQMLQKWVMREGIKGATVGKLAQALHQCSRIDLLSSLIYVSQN
# T1 sequence (P68400 whole entry): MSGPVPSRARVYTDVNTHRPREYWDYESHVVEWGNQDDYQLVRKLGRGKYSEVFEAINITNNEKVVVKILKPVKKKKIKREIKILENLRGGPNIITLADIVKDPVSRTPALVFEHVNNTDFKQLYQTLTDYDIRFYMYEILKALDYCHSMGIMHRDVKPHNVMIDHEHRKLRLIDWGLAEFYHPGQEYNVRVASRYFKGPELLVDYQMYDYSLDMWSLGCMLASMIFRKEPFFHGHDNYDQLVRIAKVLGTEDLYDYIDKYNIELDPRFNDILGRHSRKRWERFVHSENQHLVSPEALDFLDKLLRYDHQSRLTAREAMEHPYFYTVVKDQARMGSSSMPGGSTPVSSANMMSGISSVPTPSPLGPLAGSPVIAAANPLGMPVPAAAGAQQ
smiles,measurement,setting,value
COc1cc(OC)c(Cl)c(-c2ccc3c(NC(=O)c4ccc(N5CCNC(C)(C)C5)cc4)n[nH]c3n2)c1Cl [3D185],inhibition at 0.01 µM,CK2α1(h); 10 nM,23%
same,inhibition at 0.1 µM,CK2α1(h); 100 nM,21%
same,inhibition at 1 µM,CK2α1(h); 1000 nM,10%
same,inhibition at 0.01 µM,NDR2(h); 10 nM,2%
same,inhibition at 0.1 µM,NDR2(h); 100 nM,-8%
same,inhibition at 1 µM,NDR2(h); 1000 nM,1%
same,inhibition at 0.01 µM,GRK6(h); 10 nM,-4%
same,inhibition at 0.1 µM,GRK6(h); 100 nM,-6%
same,inhibition at 1 µM,GRK6(h); 1000 nM,-5%
same,inhibition at 0.01 µM,CaMKIIα(h); 10 nM,-9%
same,inhibition at 0.1 µM,CaMKIIα(h); 100 nM,2%
same,inhibition at 1 µM,CaMKIIα(h); 1000 nM,-15%
same,inhibition at 0.01 µM,DYRK2(h); 10 nM,-1%
same,inhibition at 0.1 µM,DYRK2(h); 100 nM,-1%
same,inhibition at 1 µM,DYRK2(h); 1000 nM,12%
same,inhibition at 0.01 µM,CHK1(h); 10 nM,3%
same,inhibition at 0.1 µM,CHK1(h); 100 nM,-6%
same,inhibition at 1 µM,CHK1(h); 1000 nM,-3%
same,inhibition at 0.01 µM,RIPK1(h); 10 nM,4%
same,inhibition at 0.1 µM,RIPK1(h); 100 nM,86%
same,inhibition at 1 µM,RIPK1(h); 1000 nM,99%
